Experimental data as given in ChEMBL document CHEMBL1134372, “Bisphosphonates inhibit the growth of Trypanosoma brucei, Trypanosoma cruzi, Leishmania donovani, Toxoplasma gondii, and Plasmodium falciparum: a potential route to chemotherapy” (J Med Chem, 2001).

What was measured:
[1] = system: Leishmania donovani; assay: Inhibition of L. donovani (Amastigotes) strain MHOM/ET/67/L82 maintained in female golden hamsters; format: functional, organism-based
[2] = system: Plasmodium falciparum; assay: Inhibition of Plasmodium falciparum 3D7 in erythrocytes; format: functional, organism-based
[3] = system: Trypanosoma brucei; assay: Inhibition of Trypanosoma rhodesiense (strain STIB900) was determined using blood stream from trypomastigotes; format: functional, organism-based
[4] = system: Trypanosoma cruzi; assay: Inhibition of Trypanosoma cruzi Amastigotes was determined in γ-irradiated L6E9 myoblasts culture and fetal calf serum
[5] = system: Leishmania donovani; assay: Inhibition of L. donovani (Amastigotes) strain MHOM/ET/67/L82 maintained in pathogen free spleen from female golden hamsters; format: functional, organism-based
[6] = system: Toxoplasma gondii; assay: Inhibition of Toxoplasma gondii tachyzoites in human foreskin fibroblast monolayer(DMEM with 10%fetal calf serum); format: functional, organism-based
[7] = system: Leishmania donovani; assay: Inhibition of L. donovani (Amastigotes) strain MHOM/ET/67/L82 maintained in pathogen free spleen from female golden hamsters; toxic; format: functional, organism-based
[8] = system: Trypanosoma cruzi; assay: microbe, parasite or virus in culture
Description: Compound was evaluated for anti-parasitic activity against Trypanosoma cruzi

[9] = system: Trypanosoma cruzi; assay: Effect on proliferation of Trypanosoma cruzi Amastigotes in vero cells at a conc of 150 uM was determined; format: functional
[10] = system: Vero; assay: Percent infected vero cells was determined; format: functional
[11] = system: Trypanosoma cruzi; assay: Effect on inhibition on proliferation of Trypanosoma cruzi Amastigotes in vero cells at a conc of 150 uM; format: functional
[12] = system: Trypanosoma brucei; assay: Compound was evaluated for anti-parasitic activity against Trypanosoma brucei; format: functional, organism-based
[13] = system: Vero; assay: Percent infected Vero cells was determined; format: functional
[14] = system: Trypanosoma cruzi; assay: Inhibition of Trypanosoma cruzi Amastigotes was determined in γ-irradiated L6E9 myoblasts culture and fetal calf serum; remark: listed apart in the source

SMILES: NCCCC(O)(P(=O)(O)O)P(=O)(O)O [ALENDRONIC ACID]
- IC50 [1]: 82.5 µM
- IC50 [2]: > 200 µM
- IC50 [3]: > 200 µM
- IC50 [4]: 25 µM

SMILES: CC(N)CC(O)(P(=O)(O)O)P(=O)(O)O (stereo unspecified)
- IC50 [5]: > 200 µM
- IC50 [2]: > 200 µM
- IC50 [3]: 7.8 µM
- IC50 [4]: > 200 µM

SMILES: NCCCCCC(O)(P(=O)(O)O)P(=O)(O)O [NERIDRONIC ACID]
- IC50 [1]: > 200 µM
- IC50 [2]: > 200 µM
- IC50 [3]: 31.7 µM
- IC50 [4]: > 200 µM

SMILES: NCCCCC(O)(P(=O)(O)O)P(=O)(O)O
- IC50 [1]: 129 µM
- IC50 [2]: > 200 µM
- IC50 [3]: > 200 µM
- IC50 ([6]; read-out: IC50): > 200 µM
- IC50 [4]: > 200 µM

SMILES: Cc1cccnc1NC(P(=O)(O)O)P(=O)(O)O
- IC50 [7]: Toxic
- IC50 [2]: > 200 µM
- IC50 [3]: 0.7 µM
- IC50 [4]: 147 µM

SMILES: O=C(Cn1ccnc1[N+](=O)[O-])NCc1ccccc1 [BENZNIDAZOLE]
- IC50 [8]: 3.5 µM

SMILES: O=P(O)(O)C(O)(CCc1cccnc1)P(=O)(O)O
- IC50 [1]: > 200 µM
- IC50 [2]: > 200 µM
- IC50 [3]: 1.7 µM
- inhibition at 150 µM [9]: 81%
- Infected [10]: 6%
- IC50 ([6]; read-out: IC50): > 200 µM
- IC50 [4]: > 200 µM

SMILES: O=P(O)(O)C(O)(Cc1cccnc1)P(=O)(O)O [RISEDRONIC ACID]
- IC50 [1]: 2.3 µM
- IC50 [2]: 123 µM
- IC50 [3]: 8.6 µM
- inhibition at 150 µM [11]: 100%
- Infected [10]: 0%
- IC50 ([6]; read-out: IC50): 0.49 µM
- IC50 [4]: 123 µM

SMILES: N=C(N)c1ccc(OCCCCCOc2ccc(C(=N)N)cc2)cc1 [PENTAMIDINE]
- IC50 [12]: 0.035 µM

SMILES: CCCC(O)(P(=O)(O)O)P(=O)(O)O
- IC50 [1]: > 200 µM
- IC50 [2]: 130 µM
- IC50 [3]: 92 µM
- IC50 [6]: 9.1 µM
- IC50 [4]: > 200 µM

SMILES: CCOP(=O)(OCC)C(Nc1ncccc1C)P(=O)(OCC)OCC
- IC50 [1]: 82.1 µM
- IC50 [2]: > 200 µM
- IC50 [3]: 27.9 µM
- inhibition at 150 µM [9]: 69%
- Infected [13]: 9%
- IC50 [4]: > 200 µM

SMILES: CCCCCC(O)(P(=O)(O)O)P(=O)(O)O
- IC50 [1]: > 200 µM
- IC50 [2]: 5.1 µM
- IC50 [3]: 62.4 µM
- IC50 [4]: > 200 µM

SMILES: CCCCC(O)(P(=O)(O)O)P(=O)(O)O
- IC50 [1]: > 200 µM
- IC50 [2]: 56.7 µM
- IC50 [3]: 99.8 µM
- IC50 [4]: > 200 µM

SMILES: O=P(O)(O)C(O)(Cc1c[nH]cn1)P(=O)(O)O
- IC50 [7]: Toxic
- IC50 [2]: > 200 µM
- IC50 [3]: 8.6 µM
- IC50 [4]: 35 µM

SMILES: NCCC(O)(P(=O)(O)O)P(=O)(O)O [PAMIDRONIC ACID]
- IC50 [7]: Toxic
- IC50 [2]: > 200 µM
- IC50 [3]: 177 µM
- IC50 ([6]; read-out: IC50): 35.6 µM
- IC50 [4]: 60 µM

SMILES: Nc1ccc(CC(O)(P(=O)(O)O)P(=O)(O)O)cc1
- IC50 [1]: > 200 µM
- IC50 [2]: > 200 µM
- IC50 [3]: 40 µM
- IC50 ([6]; read-out: IC50): 68.2 µM
- IC50 [4]: > 200 µM

SMILES: O=P(O)(O)C(O)(Cc1ccccc1)P(=O)(O)O
- IC50 [1]: > 200 µM
- IC50 [2]: 7.7 µM
- IC50 [3]: 21.3 µM
- inhibition at 150 µM [9]: 6%
- Infected [13]: 30%
- IC50 [4]: > 200 µM

SMILES: O=P(O)(O)C(O)(CSc1ccncc1)P(=O)(O)O
- IC50 [1]: > 200 µM
- IC50 [2]: 158 µM
- IC50 [3]: 19.8 µM
- inhibition at 150 µM [9]: 0%
- Infected [13]: 33%
- IC50 [4]: > 200 µM

SMILES: O=P(O)(O)C(O)(Cc1ccncc1)P(=O)(O)O
- IC50 [1]: > 200 µM
- IC50 [2]: > 200 µM
- IC50 [3]: > 200 µM
- IC50 ([6]; read-out: IC50): > 200 µM
- IC50 [14]: > 200 µM

SMILES: O=P(O)(O)C(O)(Cc1ccccn1)P(=O)(O)O
- IC50 [7]: Toxic
- IC50 [2]: > 200 µM
- IC50 [3]: 0.22 µM
- IC50 ([6]; read-out: IC50): 9.1 µM
- IC50 [4]: 105 µM

SMILES: CN(C)CCC(O)(P(=O)(O)O)P(=O)(O)O [OLPADRONIC ACID]
- IC50 [1]: > 200 µM
- IC50 [2]: > 200 µM
- IC50 [3]: 5.4 µM
- IC50 [4]: > 200 µM
